We go through 4 compounds from DBAASP.

Values after ≈ are worked out from the molar mass of the structure shown.

Test systems include Escherichia coli Ec513; Bacillus subtilis 168; Escherichia coli MC1061; Escherichia coli JW0013; Escherichia coli JJ2487; Escherichia coli O157:H7; Escherichia coli J2210.
What all share (assay): ≥ marks a high value that may be exact or a test limit, other limits are often not marked, values filed in µg/mL are converted to µM
Experiment [1] relates to Acinetobacter baumannii Ab5753.
The subject of experiment [2] is Staphylococcus aureus Sa1390.
Experiment [3] relates to Candida albicans ATCC 90028.
In experiment [4] the test system is Pseudomonas aeruginosa Pa1409.
Experiment [5] deals with Escherichia coli ATCC 25922.
The test system of experiment [6] is Staphylococcus aureus NCTC 8325.
Experiment [7] deals with Staphylococcus aureus UAMS-1.
The subject of experiment [8] is Klebsiella pneumoniae ATCC 13883.
In experiment [9] the test system is Staphylococcus aureus USA 200.
The test system of experiment [10] is Candida albicans ATCC 10231.
The subject of experiment [11] is Staphylococcus epidermidis 1457.
For experiment [12], the system named is Staphylococcus aureus Newman.
Experiment [13] relates to Candida glabrata ATCC 2001.
Experiment [14] concerns Staphylococcus aureus USA 300.
The subject of experiment [15] is Staphylococcus aureus USA 400.
Experiment [16] has as its system Pseudomonas aeruginosa PAO1.
Experiment [17] relates to Candida tropicalis ATCC 13803.
The test system of experiment [18] is Staphylococcus aureus MU50.
Experiment [19] concerns Proteus vulgaris MTCC 1771.
Experiment [20] concerns Corynebacterium glutamicum MTCC 2679.
Experiment [21] has as its system Klebsiella oxytoca MTCC 2275.
The test system of experiment [22] is Alcaligenes faecalis MTCC 1937.
Experiment [23] has as its system Acinetobacter baumannii MTCC 9829.
In experiment [24] the test system is Proteus mirabilis MTCC 3158.
Experiment [25] has as its system Staphylococcus aureus MTCC 3160.
Experiment [26] deals with Enterococcus faecalis MTCC 439.
Experiment [27] concerns Pluralibacter gergoviae MTCC 3826.
Experiment [28] deals with Citrobacter freundii MTCC 1658.
Experiment [29] relates to Staphylococcus haemolyticus MTCC 3383.
Experiment [30] concerns Alkalihalobacillus alcalophilus MTCC 860.
For experiment [31], the system named is Citrobacter koseri MTCC 1657.
The subject of experiment [32] is Escherichia coli K12 MG1655.
The test system of experiment [33] is Salmonella enterica MTCC 9844.
In experiment [34] the test system is Stenotrophomonas maltophilia MTCC 1890.
Experiment [35] concerns Vibrio cholerae MTCC 3904.
Experiment [36] has as its system Bordetella bronchiseptica MTCC 6837.
Experiment [37] concerns Haemophilus influenzae MTCC 621.
Experiment [38] has as its system Klebsiella pneumoniae MTCC 7407.
Experiment [39] relates to Shigella boydii MTCC 11947.
Experiment [40] has as its system Klebsiella aerogenes MTCC 111.
The test system of experiment [41] is Pseudomonas aeruginosa MTCC 3542.
The test system of experiment [42] is Salmonella enterica subsp. enterica serovar Typhimurium ATCC 14028.
The test system of experiment [43] is Shigella flexneri MTCC 1457.
For experiment [44], the system named is Salmonella enterica subsp. enterica serovar Enteritidis MH91989.
In experiment [45] the test system is Salmonella typhimurium SL1344.

As for `CC[C@H](C)[C@H](NC(=O)[C@H](CC(C)C)NC(=O)[C@H](C)NC(=O)[C@@H]1CCCN1C(=O)[C@H](Cc1ccccc1)NC(=O)[C@H](C)NC(=O)[C@H](CCCCN)NC(=O)[C@H](CCSC)NC(=O)[C@H](CC(C)C)NC(=O)CNC(=O)CNC(=O)[C@H](CC(C)C)NC(=O)[C@@H](N)Cc1ccccc1)C(=O)N[C@H]1CSSC[C@@H](C(=O)O)NC(=O)[C@H](CCCCN)NC(=O)[C@H](CCCCN)NC(=O)[C@H]([C@@H](C)O)NC(=O)[C@H](C(C)C)NC(=O)[C@H](C)NC1=O` [FLGGLMKAFPALICAVTKKC], the MIC in experiment [1] was not below 60.6 µM; in [2] it was 30.3 µM (≈ 63.9 µg/mL); against Escherichia coli Ec513, not below 60.6 µM; in experiment [3] it was 14 µM (≈ 29.5 µg/mL); in experiment [4], not below 60.6 µM; in experiment [5], 4 µM (≈ 8.44 µg/mL). This compound registered an MIC in experiment [6] of 17 µM (≈ 35.9 µg/mL).

Take `CC[C@H](C)[C@H](NC(=O)[C@H](C)NC(=O)[C@H](CO)NC(=O)[C@H](CC(C)C)NC(=O)[C@@H](N)Cc1ccccc1)C(=O)N[C@H](C(=O)N[C@@H](CO)C(=O)N[C@H](C(=O)N[C@@H](CC(C)C)C(=O)NCC(=O)N[C@@H](CCCCN)C(=O)N[C@@H](Cc1ccccc1)C(=O)N[C@@H](Cc1ccccc1)C(N)=O)[C@@H](C)CC)[C@@H](C)O` [FLSAITSILGKFF]: the MIC in experiment [7] was 25 µM (≈ 36.1 µg/mL); in experiment [8], not below 50 µM; in experiment [9], 6.25 µM (≈ 9.02 µg/mL); in experiment [10], 25 µM (≈ 36.1 µg/mL); in [11], 6.3 µM (≈ 9.09 µg/mL); in [12], 12.5 µM (≈ 18 µg/mL). In addition, the MIC in experiment [13] was 25 µM (≈ 36.1 µg/mL); in [14], 6.3 µM (≈ 9.09 µg/mL); in the experiment with Bacillus subtilis 168 it was 12.5 µM (≈ 18 µg/mL); in [15] it was 6.25 µM (≈ 9.02 µg/mL); in [5] it was more than 50 µM; in [16], more than 50 µM. The MIC in [17] was 6.2 µM (≈ 8.95 µg/mL); in [18] it was 12.5 µM (≈ 18 µg/mL).

For the compound `CC(C)C[C@H](NC(=O)[C@H](CCCCN)NC(=O)[C@@H]1CCCN1C(=O)[C@H](CC(C)C)NC(=O)[C@H](CO)NC(=O)[C@H](CCCN=C(N)N)NC(=O)[C@H](C)NC(=O)[C@H](CCCCN)NC(=O)[C@H](CCCCN)NC(=O)[C@H](Cc1ccccc1)NC(=O)[C@H](Cc1ccccc1)NC(=O)[C@H](CCCCN)NC(=O)[C@H](CCCCN)NC(=O)[C@H](Cc1c[nH]c2ccccc12)NC(=O)[C@@H](N)CO)C(=O)N[C@@H](Cc1ccccc1)C(=O)O` [SWKKFFKKARSLPKLF], the MIC was 7.95 µM (≈ 16 µg/mL) in [19]; 0.994 µM (≈ 2 µg/mL) in experiment [20]; 7.95 µM (≈ 16 µg/mL) in experiment [21]; 31.8 µM (≈ 64 µg/mL) in experiment [22]; 1.99 µM (≈ 4 µg/mL) in [23]; not below 63.6 µM in experiment [24]. Moreover, the MIC was not below 63.6 µM in experiment [25]; not below 63.6 µM in [26]; 31.8 µM (≈ 64 µg/mL) in experiment [27]; 15.9 µM (≈ 32 µg/mL) in experiment [28]; 3.98 µM (≈ 8 µg/mL) in [29]; 15.9 µM (≈ 32 µg/mL) in experiment [30]. For the same compound, the MIC stood at 3.98 µM (≈ 8 µg/mL) in [31]; 1.99 µM (≈ 4 µg/mL) in experiment [32]; 3.98 µM (≈ 8 µg/mL) in experiment [33]; 7.95 µM (≈ 16 µg/mL) in experiment [34]; 31.8 µM (≈ 64 µg/mL) in [35]; 0.497 µM (≈ 1 µg/mL) in experiment [36]. Further, the MIC in [37] came to 0.994 µM (≈ 2 µg/mL); in experiment [38] it was 15.9 µM (≈ 32 µg/mL); in experiment [39], 0.994 µM (≈ 2 µg/mL); in experiment [40], 7.95 µM (≈ 16 µg/mL); in experiment [41] it was 15.9 µM (≈ 32 µg/mL); in experiment [42] it was 3.98 µM (≈ 8 µg/mL). In [43], this compound came in with an MIC of 1.99 µM (≈ 4 µg/mL).

In the case of `CC[C@H](C)[C@H](NC(=O)[C@H](CCCN=C(N)N)NC(=O)[C@H](CCCN=C(N)N)NC(=O)[C@@H]1CCCN1C(=O)[C@@H]1CCCN1C(=O)[C@H](CCCN=C(N)N)NC(=O)[C@@H]1CCCN1C(=O)[C@H](CCCN=C(N)N)NC(=O)[C@@H]1CCCN1C(=O)[C@H](CCCCN)NC(=O)[C@H](Cc1ccc(O)cc1)NC(=O)[C@@H]1CCCN1C(=O)[C@@H]1CCCN1C(=O)[C@H](CCCCN)NC(=O)[C@H](CC(=O)O)NC(=O)[C@@H](N)C(C)C)C(=O)N[C@@H](Cc1ccc(O)cc1)C(=O)N[C@@H](CC(N)=O)C(=O)N[C@@H](CCCN=C(N)N)C(N)=O` [VDKPPYKPRPRPPRRIYNR], the MIC was determined as 0.0623 µM (≈ 0.15 µg/mL) in the experiment with Escherichia coli MC1061; 0.249 µM (≈ 0.6 µg/mL) in the experiment with Escherichia coli JW0013; 0.328 µM (≈ 0.79 µg/mL) against Escherichia coli JJ2487; 0.998 µM (≈ 2.4 µg/mL) against Escherichia coli O157:H7; 0.125 µM (≈ 0.3 µg/mL) with Escherichia coli J2210; 0.249 µM (≈ 0.6 µg/mL) in experiment [44]. In addition, in experiment [45], the MIC came out at 0.249 µM (≈ 0.6 µg/mL).
